Laboratory results reported in patent US10399931B2, “Octahydroanthracene compound, preparation method and application thereof” (SHANDONG XINHUA PHARMACEUTICAL CO., LTD., priority 2016, dated 2019).
Where two headings read alike, the source gives them in different places.

Columns and labels:
[1] = tested on: Human leukemia HL60 cells; assay: MTT assay, proliferation of human leukemia HL60 cells; type: cell-based; settings: for IC50: read-out: IC50 against HL60 cells
Method: (§1) The survival rate of cells was determined by MTT assay, which is based on the metabolic reduction of 3-(4,5-dimethyl-2thiahiazoyl)-3,5-di-phenyl-tetrazolium bromide (MTT) by viable cells. MTT is a yellow compound, a dye that accepts hydrogen ion, which can act on the respiratory chain in the mitochondria of viable cells. Under the action of succinate dehydrogenase and cytochrome C, the tetrazolium ring was cleaved to form blue Formazan crystals, and the amount of Formazan crystals generated was only proportional to the number of the viable cells. The enzymes disappeared in dead cells, so Formazan crystals could not be dissolved in MTT solution containing 20% sodium dodecyl sulfate (pH 4.7).
(§2) The cells in the logarithmic growth phase were selected and adjusted to an appropriate cell density, seeded in a 96-well plate, 100 μl/well, and cultured in a 37° C., 5% CO2 incubator. The cells were allowed to adhere overnight, then the culture medium was replaced and the drug was added to cultivate for 48 h. A blank control group, a drug administration group and a positive control group were set, with four repeats in each group.
(§3) After 48 h of drug treatment, the cells were incubated with 0.25 mg/ml MTT at 37° C. for 3-4 h, and 100 μl of dimethyl sulfoxide (DMSO) was added to each well after aspirating the culture solution.

RXR = assay: Verification of RXR target, dual-luciferase reporter in transfected 293T cells; type: cell-based, Human; settings: 20 nM, 48 h; for Relative activity (RXR): relative to CON = 1; for Flu (firefly luciferase signal) / Flu/Rlu / Rlu (Renilla luciferase signal): transfected 293T cells
HDAC = assay: Verification of HDAC target, HDAC fluorometric activity assay on A549 cell lysate; settings: 20 μM, Mean
Method: All the compounds were prepared into mother liquors with the same concentration (100 mmol/L) and stored at a temperature of −20° C. […] The DMSO sample was tested at a final concentration of 1%.
A substrate containing an acetylated lysine chain was added to the sample (cell lysate buffer), and the active HDAC in the sample deacetylated the lysine chain on the substrate to activate the substrate. Further, a lysine luminescent reagent is added to generate fluorescence, and the signal was recorded by a microplate reader to indicate the activity of HDAC in the sample.
2) Detection Method • a) Dissolving 50 μg untreated A549 cell lysate in 85 μL (final volume) ddH2O. For the positive blank group, adding 2 μL HeLA nuclear extract first, following by adding 83 μL ddH2O. In the negative blank group, by adding 2 μL Trichostatin A and 83 μL ddH2O. • b) Adding 10 μL 10× buffer to each well. • c) Adding 5 μL HDAC fluorogenic substrate to each well, and adding the drug to make the final concentration reach the set concentration, mixing well, and incubating at 37° C. for 30 min. • d) Adding 10 μL lysine developer, mixing well, then stopping the reaction, incubating for 30 min at 37° C. • e) Detecting the fluorescence value by the microplate reader (condition: emission wavelength/excitation wavelength is 350-380/440-460 nm).

[2] = tested on: Human cutaneous T-cell lymphoma Hut102 cells; assay: MTT assay, proliferation of human cutaneous T-cell lymphoma Hut102 cells; type: cell-based
Method: as §1, §2, §3

APP/PS1 transgenic mice [3] = assay: Nesting experiment; type: in vivo; settings: 100 mg/kg, at 12 h
Description: Each mouse was separately housed in a cage. On the first day of the test, two pieces of cotton (5 cm×5 cm) were placed in the cage. […]

APP/PS1 transgenic mice [4] = assay: Morris water maze test (oriented navigation and probe test); type: in vivo; settings: 100 mg/kg
Method: The drugs were administered three days after the adaptive feeding. Peanut oil was used as the solvent. The drug was intragastric administered once a day for 15 days. On the 6th to 9th day after the administration, the new object identification test was performed. On the 10th day, the Y-maze test was performed. On the 11th to 15th day, the Morris water maze test was performed to determine the improvement of learning and memory. The administration of the drugs was continued during the behavioral experiment until the animals were sacrificed (16th day).
The experimental device includes a black circular pool with a diameter of 100 cm and a height of 40 cm, and a white platform (safe platform) having a diameter of about 10 cm. The location of the safe platform could be moved. Morris Water Maze Video Detection and Analysis System was provided by the Institute of Materia Medica, China Academy of Medical Sciences. One day before the experiment, water was injected into the black circular pool (water temperature 22±1° C.), and white pigment was added to mix uniformly. The water surface was usually about 1 cm higher than the top of the safe platform. The pool was divided into four quadrants I, II, III and IV, and the safe platform was usually placed in the middle of the quadrant IV. The experiment was divided into two parts: (1) Oriented navigation: the animal grouping was input into a computer software in advance. The position of the safe platform was kept unchanged during the experiment. During the test, the experimental animal facing the pool wall was placed in the water from different inlets, and the computer simultaneously collected data and recorded the time to find the safe platform (escape latency). Data collection automatically stopped when the animal stayed on the safe platform for 10 s. The data acquisition time of the mouse was 60 s. If the animal could not find the safe platform within the specified time, the escape latency was recorded as 60 s. At the same time, the operator induced the animal to reach the safe platform and stay for 10 s. The animal was trained twice a day for 4 consecutive days. (2) Probe test: after the oriented navigation test is completed, the safe platform is removed and the animal was placed in the pool free to explore for 60 s. The camera system automatically recorded the time and distance of the experimental animal swimming in the quadrant of the safe platform within the specified time and the number of times passing through the location of the safe platform.

[5] = Homo sapiens, HL-60, 0.01 μmol/L, Mean ± SE, read-out: Inhibitive rate (%) against HL60 cells
[6] = Homo sapiens, HL-60, 0.1 μmol/L, Mean ± SE, read-out: Inhibitive rate (%) against HL60 cells
[7] = Homo sapiens, HL-60, 1 μmol/L, Mean ± SE, read-out: Inhibitive rate (%) against HL60 cells
[8] = Homo sapiens, HL-60, 10 μmol/L (rescreening), Mean ± SE, read-out: Inhibitive rate (%) against HL60 cells
[9] = Homo sapiens, HL-60, 48 h, 10 μM, 48 h, Mean ± SE, read-out: Inhibitive rate (%) against HL60 cells
[10] = Homo sapiens, HL-60, 48 h, MTT, 48 h
[11] = HuT-102, 10 μM, Mean ± SE, read-out: Inhibitive rate (%) against Hut102 cells
[12] = Homo sapiens, HL-60, read-out: Inhibitive rate (%) against HL60 cells

Row | SMILES | inhibition at 0.01 µM [1, 5] [%] | inhibition at 0.1 µM [1, 6] [%] | inhibition at 1 µM [1, 7] [%] | inhibition at 10 µM [1, 8] [%] | inhibition at 10 µM [1, 9] [%] | IC50 [1, 10] [µM] | IC50 ([1]; MTT, 48 h) [µM] | Relative activity (RXR) (RXR) | Flu (firefly luciferase signal) (RXR) | Flu/Rlu (RXR) | Rlu (Renilla luciferase signal) (RXR) | Inhibitive rate of HDAC activity of A549 cells (HDAC) [%] | inhibition at 10 µM [2, 11] [%] | further results
1 | CC1(C)CCC(C)(C)c2c1cc1c(c2NC(=O)c2ccc(C(=O)NCCN)cc2)C(C)(C)CCC1(C)C [OAA-6, N-(2-amino) ethyl-4-[(1,1,4,4,5,5,8,8-octamethyl-1,2,3,4,5,6,7,8-octahydro-9-anthryl)carbamoyl] benzamide] | 1.2 ± 0.27 | 13.4 ± 1.5 | 76.73 ± 0.07 | 79.74 ± 0.46 | > 50 | < 10 | 5.63 ± 1.14 | 1.47 | 452598 | 2.59 | 174827 | −11.07 | 23.9 ± 1.03 | 
2 | CCN(CC)CCNC(=O)Nc1ccc(C(=O)Nc2c3c(cc4c2C(C)(C)CCC4(C)C)C(C)(C)CCC3(C)C)cc1 [OAB-12, 1-[2-(N,N-diethylamino)]ethyl-3-{4-[(1,1,4,4,5,5,8,8-octamethyl-1,2,3,4,5,6,7,8-octahydro-9-anthryl)carbamoyl]phenyl} urea] | 8.96 ± 1.45 | 11.8 ± 1.33 | 73 ± 1.31 | 78.94 ± 0.42 |  |  |  | 0.85 | 4013 | 1.49 | 2686 | 4.17 | 43.7 ± 3.98 | 
3 | CN(C)CCNC(=O)Nc1ccc(C(=O)Nc2c3c(cc4c2C(C)(C)CCC4(C)C)C(C)(C)CCC3(C)C)cc1 [OAB-13, 1-[2-(N,N-dimethylamino)]ethyl-3-{4-[(1,1,4,4,5,5,8,8-octamethyl-1,2,3,4,5,6,7,8-octahydro-9-anthryl)carbamoyl]phenyl} urea] | 12.6 ± 0.7 | 11.4 ± 0.88 | 53.3 ± 1.22 | 79.93 ± 0.16 |  | < 10 | 6.65 ± 2.93 | 1.11 | 76228 | 1.95 | 39025 | 3.19 | 39.8 ± 0.81 | 
4 | C=C(c1ccc(C(=O)O)cc1)c1cc2c(cc1C)C(C)(C)CCC2(C)C [BEXA, bexarotene, reference compound] |  |  |  |  |  |  |  |  |  |  |  |  |  | IC50 ([1]; Homo sapiens, HL-60, 48 h): 6.31 ± 0.7 µM; inhibition at 10 µM ([1]; Homo sapiens, HL-60, 48 h, read-out: Inhibitive rate (%) against HL60 cells): 4 ± 1.14%; inhibition at 0.01 µM [1, 12]: 16.5 ± 1.66%; inhibition at 0.1 µM [1, 12]: 15.1 ± 1.44%; inhibition at 1 µM [1, 12]: 65.5 ± 1.72%; inhibition at 10 µM [1, 12]: 80.88 ± 0.63%; Nesting ability vs model group (APP/PS1 transgenic mice [3]): significantly increased; inhibition at 10 µM ([2]; HuT-102, read-out: Inhibitive rate (%) against Hut102 cells): 6.41 ± 4.1%; Escape latency vs model group (APP/PS1 transgenic mice [4]; third and fourth days of training): significantly reduced; Number of times traversing the safe platform vs model group (APP/PS1 transgenic mice [4]; probe test): significantly increased; Percentage of the swimming distance in the target quadrant vs model group (APP/PS1 transgenic mice [4]; probe test): significantly increased; Swimming time in the target quadrant vs model group (APP/PS1 transgenic mice [4]; probe test): significantly increased
5 | CC1(C)CCC(C)(C)c2c1cc1c(c2NC(=O)c2ccc(NC(=O)NCCO)cc2)C(C)(C)CCC1(C)C [OAB-17, 1-(2-hydroxy) ethyl-3-{4-[(1,1,4,4,5,5,8,8-octamethyl-1,2,3,4,5,6,7,8-octahydro-9-anthryl)carbamoyl]phenyl} urea] |  |  |  |  | 33.6 ± 0.7 |  |  |  |  |  |  |  | 9.22 ± 1.29 | melting point: 284 to 287 °C
